ChEMBL document CHEMBL1151347, “Lignans From Justicia flava” (J Nat Prod, 1980)
Active and inactive are the calls of the source. The calls are words filed in the database; no cut-off is given here.

Columns and labels:
Mus musculus [1] = species on record: Mus musculus; test: Effect on central nervous system in mouse assessed as ataxia; format: functional, organism-based
Mus musculus [2] = species on record: Mus musculus; test: Effect on central nervous system in mouse assessed as decrease in motor activity; format: functional, organism-based

Structure (SMILES) | Activity (Mus musculus [1]) | Activity (Mus musculus [2])
O=C1OCc2c1cc1ccc3c(c1c2-c1ccc2c(c1)OCO2)OCO3 | inactive | inactive
COc1cc(OC)c2c(-c3ccc4c(c3)OCO4)c3c(c(OC)c2c1O)COC3=O | inactive | inactive
COc1cc([C@H]2c3cc(O)c(OC)cc3C[C@@H](CO)[C@@H]2CO)ccc1O | inactive | inactive
